Assay [1] relates to proline specific protease. In words: Effect of pepstatin on the proline specific protease. Format: biochemical, Aspergillus niger. To be noted: pepstatin 1.67 microgram/ml. As for the experimental part: Prerequisite for a successful enzyme therapy according to the present application is an efficient degradation of dietary proteinaceous material in the stomach. […] Citrate/HCl buffers of 0.2 mol/l were used for obtaining the required acid pH conditions. […] Residual activities of the proline specific protease were measured kinetically at 405 nm using the synthetic substrates Ala-Ala-Pro-pNA (Bachem, Switzerland). […] Absorbance was measured kinetically for 10 min at 405 nm at 30° C. making use of a TECAN Genios MTP Reader (Salzburg, Vienna).

The test system of another assay is Sodium caseinate. Briefly: Casein hydrolysis under simulated stomach conditions (visual impression, di-/tripeptides, free amino acids). Format: biochemical. The settings on record: 2.5 mg/ml caseinate suspension, pH 4.0, 37 degrees C., 0.25 mg/ml of each enzyme.

Non-standard residues stand in square brackets, D forms with d. Residues, ends and D or L forms follow the SMILES beside them. *: point of attachment. Sta = CC(C)C[C@H](N)[C@@H](O)CC(=O)O; Isovaleryl = CC(C)CC(=O)*

In the case of `CC(C)CC(=O)N[C@H](C(=O)N[C@H](C(=O)N[C@@H](CC(C)C)[C@@H](O)CC(=O)N[C@@H](C)C(=O)N[C@@H](CC(C)C)[C@@H](O)CC(=O)O)C(C)C)C(C)C` [pepstatin, Pepstatin] (Isovaleryl-VV[Sta]A[Sta]-OH), the “inhibitory effect on the proline specific protease” value in assay [1] is reported as “no inhibitory effect”.
Consider “Pepsin: gastric aspartic endoprotease (EC 3.4.23.1) from porcine stomach mucosa, Sigma”, for which, in the assay with Sodium caseinate, the “Visual impression after 45″” value is reported as “turbid” and the “Visual impression after 90″” value is “clear”.

Source of the values: patent publication US20110171294A1, “Enzyme composition and application thereof in the treatment of pancreatic insufficiency” (DSM IP ASSETS B.V., priority 2008, published 2011).
